Assay results: patent publication EP0378881B1, “Synthetic peptides and their use as universal carriers for the preparation of immunogenic conjugates suitable for the development of synthetic vaccines” ([…] S.p.A., priority 1989, dated 1993)
“Also recorded” adds a separate entry of the source. Where two headings read alike, the source gives them in different places.

Key:
[1] = tested on: Mononucleated cells of peripheral blood (PBMC); type: cell-based, human
[2] = tested on: T-cellular clones which are specific for TT=2; type: cell-based, human
[3] = tested on: T-cellular clones which are specific for TT=2; type: cell-based, human; remark: listed apart in the source
[4] = tested on: anti-CSP antibody response; settings: cited from earlier work

Substance: Gln-Tyr-Ile-Lys-Ala-Asn-Ser-Lys-Phe-Ile-Gly-Ile-Thr-Glu (QYIKANSKFIGITE; printed: Gln-Tyr-Ile-Lys-Ala-Asn-Ser-Lys-Phe-Ile-Gly-Ile-Thr-Glu) [TT=2, synthetic peptide corresponding to TT segment 830-843]
- TT=2-specific cells as share of all the T cells which were specific for the Tetanus Toxoid (TT) [1]: ≤ 5%
- DR alleles in association with which the clone recognizes TT=2 [2]: DR1, 2, 4w4 and 7; also recorded: DR5JVM and 6
- DR alleles that can be used as restriction molecules [2]: DR1-9, 4 x 4, 5JVM and DRw52b
- concentrations of the peptide at which all the clones react (dose-response plot) [2]: 0.1 to 2 µM
- isotype of the II-class molecules recognized by the clones [2]: restricted DRs
- proliferation of the isolated clones in response to the antigen [2]: proliferate responsively
- minimum antigenic sequence (epitope) recognized by the T-cells [3]: single 831-842 epitope

Substance: H-(Asn-Ala-Asn-Pro)n
- anti-CSP antibody response ([4]; CBA/ca mice): not able to induce
- anti-CSP antibody response ([4]; DBA/2 mice): not able to induce

Substance: NANP₄₀: polymer (Asn-Ala-Asn-Pro)₄₀ obtained by polymerizing the activated monomer
- responder status of the mouse strain ([4]; C57/8L/6 mice): natural responders
- responder status of the mouse strain ([4]; CB4/ca mice): non-responders
- responder status of the mouse strain ([4]; DBA/2 mice): non-responders
